Results as given in patent US12560591B2, “Methods of treatment with CD8 T cell-mediated immune therapy” (Providence Health & Services—Oregon, priority 2019, dated 2026).

What was measured:
CT26 cells = assay: Rechallenge of cured mice with CT26 cells; type: in vivo, mouse; conditions: cured animals (RT/5-FU/LY3200882), rechallenge at day 73 post-implant, FIG. 6C-D
Excerpt: (§1) FIGS. 6A-6D are a series of panels showing generation of tumor-specific immune memory following tumor eradication with TGFβ inhibition with chemoradiation. […] The number of mice cured over the total number of mice in each group is indicated in the top right corner. One representative experiment is shown reflective of two independent experiments. Mice who eradicated their tumors were rechallenged with CT26 and 4T1 tumors. CT26 tumor cells were rechallenged on the opposite flank as from the original cured tumor. In FIG. 6D, 4T1 and CT26 tumor establishment and growth was followed for up to 60 days post re-challenge. The number of tumors rejected per total mice rechallenged in each tumor type is indicated in the top right portion of the graph. ***=p<0.001
(§2) In order to evaluate whether the improved efficacy of RT+5FU+LY (FIG. 1B) was due to the direct effect of ALK5 inhibition on CD8^+ T cells, LY treatment in ALK5^ΔCD8 mice was tested.

4T1 cell line = assay: Rechallenge of cured mice with 4T1 cells; type: in vivo, mouse; conditions: cured animals (RT/5-FU/LY3200882), 4T1 implanted simultaneously on opposite flank, FIG. 6C-D
Excerpt: as §1, §2

CT26 tumors = assay: CT26 tumor model: ALK5 inhibitor with chemoradiation (RT+5FU), tumor growth and survival; type: in vivo, mouse; conditions: FIG. 6B
Experimental: FIGS. 1A-1D are a series of panels showing that the TGFβR1 antagonist LY2157299 enhances chemo-radiation efficacy dependent on CD8α^+ cells in CT26 tumors. FIG. 1A is a treatment schema in the CT26 tumor model. Six to eight week old BALB/c mice were implanted subcutaneously in the left flank with 2×10^5 CT26 tumor cells. Seven days following implant, animals were randomized based on tumor size, and vehicle control or LY2157299 compound were administered by oral gavage twice daily every 12 hours at 150 mg/kg for 7 consecutive days. At day 14, some mice received five consecutive radiation treatments of 5 Gy targeted to tumor tissue along with 25 mg/kg injections of 5-fluorouracil (5FU) chemotherapy administered intraperitoneally on days 14, 16, and 18. LY treatment groups resumed BID oral dosing from days 21-27. Mean tumor growth (i) and survival (ii) were assessed three times per week up to 100 days or death (FIG. 1B). […] Arrows identify pSMAD2^+CD8^+ cells in vehicle mice. […] NS=not significant, *=p<0.05, **=p<0.01, ***=p<0.001.
as §1
Animal studies and cell culture: C57BL/6, BALB/c, CD8Cre, Lyz2Cre, and Foxp3-eGFP-CreERT2 mice were purchased from the Jackson Laboratories (Bar Harbor, Maine). ALK5flox/flox mice were a generous gift from Andrew Weinberg (Providence Cancer Center). All transgenic mice were on C57BL/6 background. CT26, MC38, 4T1 and MCA205-OVA tumor cells were grown in DMEM medium supplemented with 10% heat-inactivated fetal bovine serum and 1% penicillin-streptomycin to 60-90% confluence prior to tumor implantation. All cells were washed 2× with 1×PBS and implanted subcutaneously in a 100 μl volume of 1×PBS in the lower flanks. 1×10^5 MC38 cells, 2×10^5 CT26 cells, 5×10^4 4 T1 cells, and 5×10^6 MCA205-OVA cells were used for tumor induction. Tumors were measured 3×/week until they reached the survival end-point of 144 mm^2. […] Following single cell preparation, cells were washed and resuspended in FACS buffer (1×PBS, 1% BSA, 2 mM EDTA) and counted prior to FACS staining using a Guava EasyCyte cytometer (Millipore). […]

[1] = test system: peripheral blood CD3^+CD4^−CXCR3^+ T cells; assay: HNSCC patients, neoadjuvant anti-PD-1: peripheral blood CXCR3+ T cells; type: in vivo, human; conditions: one week after first dose of nivolumab 240 mg IV, FIG. 13B
Experimental: FIGS. 13A-13D are a series of panels showing change in CXCR3^+ cells in response to checkpoint blockade. […] Peripheral blood was drawn at baseline and one week after anti-PD-1 therapy (nivolumab). Surgery was performed at week six for pathologic assessment. […] Patients are grouped by nodal status following neoadjuvant treatment (ypN). FIGS. 13C and 13D show HPV+ patients from FIG. 13B and HPV-patients from FIG. 13B, respectively. Given the low number of patient(s) with residual nodal disease (ypN+), statistics could not be accurately performed in the HPV+ and HPV− subgroups.
Patients with locoregionally advanced HNSCC were treated with anti-PD-1 (nivolumab, 240 mg, IV) three times Q2W. Radiation was administered following the first anti-PD-1 treatment, and surgery was performed at week 6 to assess pathologic status. Patients also received stereotactic body radiation therapy (SBRT) following the first dose of nivolumab. Peripheral blood was drawn at baseline and one week after administration of the first dose of nivolumab. […] As HPV+ and HPV-HNSCC have marked differences in natural history and/or behavior, these cohorts were also analyzed separately (FIGS. 13C and 13D). When comparing response to neoadjuvant therapy in the HPV+ and HPV− cohorts separately, the change in percent CXCR3^+CD3^+CD4^− T cells was more distinct.

| Compound | tumor rechallenge outcome (CT26 cells) | tumor rechallenge outcome (4T1 cell line) | tumor cures (animals cured of total) (CT26 tumors; CT26, LY3200882 with chemoradiation (RT/5-FU)) | median survival (CT26 tumors; CT26, LY3200882 with chemoradiation, p<0.001 vs RT+5FU) | change in peripheral blood CD3^+CD4^−CXCR3^+ T cells vs nodal status [1] |
| --- | --- | --- | --- | --- | --- |
| CC(C)(O)c1cc(Nc2cc(Oc3cn(C4CC4)nc3C3CCOCC3)ccn2)ccn1 [LY3200882] | rejected tumor rechallenge | but not the immunologically distinct 4T1 cell line | 6 of 7 | not reached |  |
| nivolumab: anti-PD-1 antibody |  |  |  |  | decrease in CD3^+CD4^−CXCR3^+ T cells following neoadjuvant nivolumab correlated with clearance of nodal disease |
